Measured values: publication PMC10810714, “Antiretroviral Drug Exposure and Response in Obese and Morbidly Obese People With Human Immunodeficiency Virus (HIV): A Study Combining Modelling and Swiss HIV Cohort Data” (Clinical Infectious Diseases: An Official Publication of …, 2023)
Where two headings read alike, the source gives them in different places.

Experiments:
[1] = Observed pharmacokinetics of antiretrovirals in nonobese and obese individuals (SHCS therapeutic drug monitoring data and literature studies, noncompartmental analysis)
Source text: (§1) We took several steps to analyse the impact of obesity on the ARVs exposure and response. First, we implemented our in-house PBPK model with our recently published virtual White obese population to simulate the pharmacokinetics of ARVs in nonobese and obese individuals. Next, we verified the simulations against the TDM data collected during the follow-up visits of the SHCS (multiple drug levels per individual were allowed [more information on the SHCS in the homonymous section in the Supplementary Material]). We then applied the verified model to extrapolate the pharmacokinetics across different obesity classes. Finally, the clinical relevance of obesity-related changes on drug response was evaluated by analyzing HIV viral load and the corresponding TDM values in obese and nonobese individuals in the SHCS.
(§2) All ARV drug models, except for doravirine (Supplementary Table 1), were previously developed and verified to predict the pharmacokinetics in healthy and elderly PWH [6, 12]. […] The TDM data were excluded if the participant’s age was younger than 20 or older than 50 years to avoid the age-related confounding effect on the pharmacokinetics, if a nonstandard ARV dosage was used, and if concurrent medications with inhibitory or inducing effects were used. The pharmacokinetic parameters including peak plasma concentration (Cmax), area under the curve to time t (AUCt), and trough concentration (Cτ) were derived from the TDM data using noncompartmental analysis.
(§3) A literature search was also performed to identify pharmacokinetic studies with ARVs conducted in obese and nonobese individuals. Data on the study design, characteristics of the participants, and pharmacokinetic results were collected. […] Available concentration-time profiles were digitalized using GetData Graph Digitizer V.2.26. The virtual trials were conducted by matching the participants’ demographics (eg, age, proportion of females, and BMI) and the ARV dosing regimen (Supplementary Table 2). The models were considered verified if the simulations were within 2-fold of observed data.
The Swiss HIV Cohort Study (SHCS) is an ongoing, nationwide, multicenter, clinic-based prospective cohort study in Switzerland with continuous enrollment and follow-up (twice a year) of people with HIV (PWH). Socio-demographic, clinical and laboratory data are recorded in detail. […] The collection of therapeutic drug monitoring (TDM) data in the SHCS database was initiated in 1998. All available TDM data for each evaluated antiretroviral drug were extracted from the SHCS database representing 6210 and 575 data points for the verification of the simulations in non-obese and obese individuals, respectively.

[2] = test system: HIV viral load; assay: Drug response in obese versus nonobese participants in the SHCS (concentration below efficacy threshold and viral load >50 copies/mL)
Protocol: The viral load was analyzed in conjunction with the TDM data to evaluate whether a decrease in ARV exposure in obese PWH is associated with a viral load of more than 50 copies/mL (the viral load measured on the date of the TDM assessment was considered for this evaluation).

[3] = cited from earlier work
[4] = PBPK model virtual trials matched to the observed studies (model verification, nonobese vs obese); set-up: species or system human; settings: for AUCt, Ratio Predicted/Observed, Nonobese / Cmax, Ratio Predicted/Observed, Nonobese / Cτ, Ratio Predicted/Observed, Nonobese / t1/2, Ratio Predicted/Observed, Nonobese: nonobese individuals; for Predictions within x-fold of observed clinical data: pharmacokinetic parameters in obese and nonobese individuals, 1.25-fold 'for the most part'
Source text: as §1, §2, §3

[5] = test system: CYP3A4; assay: Doravirine PBPK model parameter: CYP3A4 intrinsic clearance; type: in vitro ADME; settings: Retrograde calculation
Source text: Supplementary Table 1. Doravirine PBPK model parameters.

[6] = nonobese, standard oral dose at steady state; GM (mean for etravirine, emtricitabine, tenofovir); literature studies only, ref Supplementary Table 2 [9-16, 21-24]; cited from earlier work
[7] = set-up: method as in earlier work; settings: PBPK model parameter, supplement reference list; cited from earlier work
[8] = set-up: method as in earlier work; settings: PBPK model parameter, supplement reference list; cited from earlier work; remark: listed apart in the source
[9] = over 18 mo after switching from tenofovir disoproxil fumarate; cited from earlier work
[10] = obese (BMI >=30, range per drug), standard oral dose at steady state, GM (mean for etravirine), SHCS TDM data with or without literature data
[11] = BMI 18.5–30 kg/m^2, viral load above 50 copies/mL
[12] = BMI >30 kg/m^2, viral load above 50 copies/mL
[13] = Black African PWH, median BMI 25.3 vs 32.8 kg/m^2

Compound | Cτ, observed, obese individuals [1, 10] | % PWH with concentration below efficacy threshold ([2]; BMI 18.5–30 kg/m^2) | % PWH with virological failure amongst those with concentration below efficacy threshold [2, 11] | % PWH with concentration below efficacy threshold ([2]; BMI >30 kg/m^2) | % PWH with virological failure amongst those with concentration below efficacy threshold [2, 12] | Cτ, Ratio Obese/Nonobese, Observed ([1]; observed data) | Cτ, Ratio (Predicted Ratio Obese/Nonobese)/(Observed Ratio Obese/Nonobese) [4] | AUCt, Ratio Predicted/Observed, Nonobese [4] | Cmax, Ratio Predicted/Observed, Nonobese [4] | Cτ, Ratio Predicted/Observed, Nonobese [4] | t1/2, Ratio Predicted/Observed, Nonobese [4] | Cτ, Ratio Predicted/Observed, Obese ([4]; obese individuals) | Predictions within x-fold of observed clinical data [4] | AUCt, observed, nonobese individuals [6] | Cmax, observed, nonobese individuals [6] | Cτ, observed, nonobese individuals [6] | t1/2, observed, nonobese individuals [6] | also measured
C[C@@H]1CCO[C@H]2Cn3cc(C(=O)NCc4ccc(F)cc4F)c(=O)c(O)c3C(=O)N12 [Dolutegravir, dolutegravir] | 940 ng/mL | 2.1% | 0.3% | 2.6% | 0% |  |  |  |  |  |  |  |  |  |  |  |  | AUC(0-t) ([1]; human, plasma, po, AUCt, observed, nonobese individuals, nonobese (BMI range per drug), standard oral dose at steady state, GM, SHCS TDM data with or without literature data): 45400 ng·h/mL; Cmax ([1]; human, plasma, po, Cmax, observed, nonobese individuals, nonobese (BMI range per drug), standard oral dose at steady state, GM, SHCS TDM data with or without literature data): 3320 ng/mL; half-life ([1]; human, plasma, po, t1/2, observed, nonobese individuals, nonobese (BMI range per drug), standard oral dose at steady state, GM, SHCS TDM data with or without literature data): 12.6 h; Cτ, observed, nonobese individuals ([1]; nonobese (BMI range per drug), standard oral dose at steady state, GM, SHCS TDM data with or without literature data): 889 ng/mL; Reduction in AUCt, obese vs nonobese [3, 13]: 9%; Reduction in Cmax, obese vs nonobese [3, 13]: 14%; Reduction in Cτ, obese vs nonobese [3, 13]: 1%
Cn1c(Cn2ccc(C(F)(F)F)c(Oc3cc(Cl)cc(C#N)c3)c2=O)n[nH]c1=O [Doravirine, doravirine] | 513 ng/mL | 0% | 0% | 25% | 0% | 1.27 | 0.79 | 1.00 | 1.10 | 0.86 | 1.03 | 0.68 | ≤ 1.25 fold | 17 498 ng*h/mL | 1226 ng/mL | 404 ng/mL | 13.5 h | CYP3A4 CLint (intrinsic clearance) [5]: 0.032 µl/min/pmol enzyme; drug type [7]: Monoprotic base; log P (octanol-water partition coefficient) [7]: 3.0; pKa1 [7]: 9.5; Apparent permeability [8]: 25 10^-6 cm/sec; BP (blood-plasma-ratio) [8]: 1.0; CLrenal (renal clearance) [8]: 0.566 L/h; fup (fraction unbound in plasma) [8]: 0.24; Increase in Cτ in obese compared with nonobese PWH ([3]; clinical study): 22%
Cc1cc(/C=C/C#N)cc(C)c1Nc1ccnc(Nc2ccc(C#N)cc2)n1 [Rilpivirine, rilpivirine] | 89.2 ng/mL | 15% | 1.9% | 0% | 0% | 1.19 | 0.87 | 1.05 | 0.93 | 0.96 | 0.65 | 0.84 | ≤ 1.25 fold | 2333 ng·h/mL | 159.7 ng/mL | 75.2 ng/mL | 47.2 h | Cmax, observed, obese individuals [1, 10]: 147.7 ng/mL; AUCt, Ratio Obese/Nonobese, Observed ([1]; observed data): 0.85; Cmax, Ratio Obese/Nonobese, Observed ([1]; observed data): 0.92; AUCt, Ratio (Predicted Ratio Obese/Nonobese)/(Observed Ratio Obese/Nonobese) [4]: 1.16; Cmax, Ratio (Predicted Ratio Obese/Nonobese)/(Observed Ratio Obese/Nonobese) [4]: 1.09; AUCt, Ratio Predicted/Observed, Obese ([4]; obese individuals): 1.23; Cmax, Ratio Predicted/Observed, Obese ([4]; obese individuals): 1.00
CC(C)OC(=O)[C@H](C)N[P@](=O)(CO[C@H](C)Cn1cnc2c(N)ncnc21)Oc1ccccc1 [tenofovir alafenamide] |  |  |  |  |  |  |  |  |  |  |  |  |  |  |  |  |  | Increase in weight [9]: 1.7 kg
